From patent US20180037605A1, “SYNTHETIC PEPTIDES AND ENZYMATIC FORMATION OF INTRACELLULAR HYDROGELS” (BRANDEIS UNIVERSITY, priority 2015, published 2018)
≈ marks a conversion by molar mass, not a printed value.

What was measured:
[1] = in vitro; conditions: human
Description: (§3) The cells were seeded in exponential growth phase in a 96 well plate at a concentration of 1×10^4 cell/well with 100 μL of culture medium. Cells were allowed to attach for 24 hours at 37° C., 5% CO2 and then the culture medium was removed with the help of vacuum pump. Culture medium containing the precursors in gradient concentrations was added to each well (0 μM as control). 10 μL of 5 mg/mL MTT ((3-(4,5-Dimethylthiazol-2-yl)-2,5-diphenyltetrazolium bromide) was added to each well after 24 hours, 48 hours, and 72 hours incubation. After 4 hours incubation of the plated cells in dark place, 100 μL 10% SDS with 0.01 M HCl was added to each well to dissolve the purple formazan and to stop the reduction reaction. 24 hours later, the absorbance of the solution at 595 nm was finally measured with a DTX 880 Multimode Detector.

[2] = Systemic toxicity after intravenous injection in mice; conditions: 5 to 20 mg/kg, after 7 days
[3] = test system: U87MG cells; assay: MTT cell viability, U87MG; type: cell-based; conditions: 72 hours incubation
Description: as §3

[4] = test system: HS-5 cells; assay: MTT cell viability, HS-5 stromal cells; conditions: 20 μM (D-10) and 50 μM (L-10)
Description: as §3

[5] = test system: PC-12 cells; assay: MTT cell viability, PC-12 neuronal cells; type: cell-based, rat
Description: as §3

[6] = test system: HeLa cells; assay: MTT cell viability, HeLa; type: cell-based; conditions: third day (72 h)
Description: D-7 and D-10 (FIG. 12A), the enantiomers of L-7 and L-10, were prepared as described in Example 3. HeLa and SKOV3 cells were used in an MTT assay for assessing cytotoxicity of the peptides against these cancer cell lines.

[7] = test system: HCC1937 cells; assay: MTT cell viability, HCC1937; type: cell-based; conditions: third day (72 h)
[8] = test system: A2780cis cells
[9] = test system: HS-5 cells; conditions: 72 h
Description: as §3

[10] = test system: MCF-7 cells; assay: MTT cell viability, MCF-7; type: cell-based; conditions: third day (72 h)
Description: as §3

[11] = test system: SKOV3 cells
Description: SKOV3 cells were seeded in exponential growth phase in a 96 well plate at a concentration of 1×10^4 cell/well with 100 μL of McCoy's 5A medium modified supplemented with 10% fetal bovine serum (FBS), 100 U/mL penicillin and 100 μg/ml streptomycin. The cells were allowed to attach to the wells for 24 hours at 37° C., 5% CO2. The culture medium was removed and 100 μL culture medium containing compounds (immediately diluted from fresh prepared stock solution of 10 mM) at gradient concentrations (0 μM as the control) was placed into each well. McCoy's 5A medium modified was regarded as blank. After culturing at 37° C., 5% CO2 for 24 hours, 48 hours, and 72 hours, 10 μL of 5 mg/mL MTT (3-(4,5-Dimethylthiazol-2-yl)-2,5-diphenyltetrazolium bromide) was added to each well, and the plated cells were incubated in dark place for 4 hours. 100 μL 10% SDS with 0.01 M HCl was added to each well to stop the reduction reaction and to dissolve the purple formazan. After incubation of the cells at 37° C. for overnight, the OD at 595 nm of the solution was measured in a microplate reader.
as §3

[12] = test system: T98G cells; assay: MTT cell viability, T98G; type: cell-based; conditions: 72 hours incubation
Description: as §3

[13] = test system: SKOV3 cells; assay: LC-MS of cell lysates and culture medium, SKOV3; type: cell-based
Description: (§1) After confirming that CES converts the precursor L-10 or D-10 into the hydrogelator L-12 or D-12, the stability of the precursors (L-10 or D-10) when incubated with the ovarian cancer cells was determined. After culturing the precursors with SKOV3 or A2780cis cells at 37° C. for 4 hours, the cell lysates and culture medium were collected for liquid chromatography-mass spectrometry (LC-MS) analysis and the intracellular concentrations of the precursors, the hydrogelators, and the relevant proteolyzed products were determined. After incubation with SKOV3 or A2780cis cells for 4 hours, more than 85% of the precursors (L-10 or D-10) turned into the corresponding hydrogelators (L-12 or D-12; see Table 1 below).

[14] = test system: co-cultured HS-5 and SKOV3 cells; assay: Cell viability of co-cultured HS-5 and SKOV3 cells; type: cell-based; conditions: D-10 37 μg/mL
Description: (§2) 5×10^3 of SKOV3 cells (or A2780cis) and 5×10^3 HS-5 cells per well were seeded together and co-cultured in DMEM medium. Based on the results in FIG. 22, the concentrations of L-10 and D-10 at 73 and 37 μg/mL, respectively, were chosen. […] The inhibitory activities of L-10 and D-10 towards the co-culture agree well with their cytotoxicity against A2780cis, SKOV3, and H-5 cells. […] For example, on the first day, the cell viabilities of co-cultured HS-5 and SKOV3 cells and co-cultured HS-5 and A2780cis cells treated by D-10 (37 μg/mL) were 79% and 80%, respectively. While on the third day, the cell viabilities dropped to 44% and 57%, respectively. […] Contrary to the case of D-10, the efficacies of L-10 were almost the same between day two and day three (FIG. 25A), which agreed with the lower in vivo stability of L-10 than that of D-10.

[15] = test system: A2780 cells; assay: MTT cell viability, A2780; type: cell-based
[16] = mouse, in vivo, 20 mg/kg
[17] = test system: Saos-2 cells; assay: MTT cell viability, Saos-2; type: cell-based; conditions: third day (72 h)
Description: as §3

[18] = test system: HepG2 cells; assay: MTT cell viability, HepG2; type: cell-based; conditions: third day (72 h)
Description: as §3

[19] = test system: co-cultured HS-5 and A2780cis cells; assay: Cell viability of co-cultured HS-5 and A2780cis cells; type: cell-based; conditions: D-10 37 μg/mL
Description: as §2

[20] = test system: MES-SA cells; assay: MTT cell viability, MES-SA; type: cell-based; conditions: third day (72 h)
Description: as §3

[21] = test system: MES-SA/D×5 cells; assay: MTT cell viability, MES-SA/D×5; type: cell-based; conditions: third day (72 h)
Description: as §3

[22] = test system: A375 cells; assay: MTT cell viability, A375; type: cell-based; conditions: third day (72 h)
Description: as §3

[23] = test system: A2780cis cells; assay: LC-MS of cell lysates, A2780cis; type: cell-based; conditions: 100 μm D-10
Description: as §1

[24] = combination of D-10 and CP, 72 hours
[25] = SKOV3 cell lysates, 4 hours, 37° C., 20 μm D-10 or 50 μm L-10

O=C(CCC(=O)OCCNC(=O)[C@@H](Cc1ccccc1)NC(=O)[C@@H](Cc1ccccc1)NC(=O)Cc1ccc2ccccc2c1)NCCS(=O)(=O)O [D-10]
viability at 3 day, 37 μg/mL [1]: ~80%
effect on weight and organ index of mice [2]: hardly affected
IC50, U87MG [3]: 126 µg/mL (≈ 172 µM)
inhibition of HS-5 cells [4]: hardly inhibited
inhibition of PC-12 cells ([5]; 20 μM (D-10) and 50 μM (L-10)): hardly inhibited
IC50, PC-12 ([5]; third day (72 h)): 62 µg/mL (≈ 84.8 µM)
IC50, HeLa [6]: 27 µg/mL (≈ 36.9 µM)
IC50, HCC1937 [7]: 26 µg/mL (≈ 35.6 µM)
inhibition of A2780cis cells by combination with CP [8, 24]: 70%
IC50, A2780cis ([8]; third day (72 h)): 36 µg/mL (≈ 49.3 µM)
IC50, HS-5 [9]: 50 µg/mL (≈ 68.4 µM)
IC50, MCF-7 [10]: 25 µg/mL (≈ 34.2 µM)
inhibition of SKOV3 ovarian cancer cells ([11]; 48 h, 50 μM): over 70%
IC50, SKOV3 ([11]; 72 h): 31 µg/mL (≈ 42.4 µM)
inhibition of SKOV3 cells by mixture with CP ([11]; 72 h, 15 μg/mL): about 74%
viability of SKOV3 cells ([11]; human, 72 hours, 37 μg/mL): 10%
IC50, T98G [12]: 145 µg/mL (≈ 198 µM)
cumulative intracellular concentration of precursor and hydrogelator relative to incubation concentration ([13]; 4 hours incubation): about 5 fold
Ratio of hydrogelator to precursor after 4 hours ([13]; SKOV3 cell lysates, 20 μm D-10 or 50 μm L-10): 6.75
Hydrogelator (12) intracellular concentration [13, 25]: 108 μm
Precursor (10) intracellular concentration [13, 25]: 16 μm
cell viability of co-cultured HS-5 and SKOV3 cells ([14]; first day): 79%
cell viability of co-cultured HS-5 and SKOV3 cells ([14]; third day): 44%
viability of A2780 cells, combination with CP [15, 24]: 9%
IC50, A2780 ([15]; third day (72 h)): 37 µg/mL (≈ 50.6 µM)
tolerability [16]: well tolerated
IC50, Saos-2 [17]: 44 µg/mL (≈ 60.2 µM)
IC50, HepG2 [18]: 88 µg/mL (≈ 120 µM)
cell viability of co-cultured HS-5 and A2780cis cells ([19]; first day): 80%
cell viability of co-cultured HS-5 and A2780cis cells ([19]; third day): 57%
IC50, MES-SA [20]: 31 µg/mL (≈ 42.4 µM)
IC50, MES-SA/D×5 [21]: 163 µg/mL (≈ 223 µM)
IC50, A375 [22]: 38 µg/mL (≈ 52 µM)
Ratio of hydrogelator to precursor after 4 hours [23]: 8.43
Hydrogelator (12) intracellular concentration ([23]; 4 hours, 37° C.): 582 μm
Precursor (10) intracellular concentration ([23]; 4 hours, 37° C.): 69 μm
